From ChEMBL document CHEMBL3856246, “Pharbilignan C induces apoptosis through a mitochondria-mediated intrinsic pathway in human breast cancer cells” (Bioorg Med Chem Lett, 2016)
Active and inactive are the calls of the source. The calls are words filed in the database; no cut-off is given here.

How the values were obtained:
[1] = test system: MCF7; assay: Induction of apoptosis in human MCF7 cells assessed as late apoptotic cells at 5 uM after 72 hrs by Annexin V-FITC/propidium iodide based flow cytometric analysis (reference value: 1.28 %); format: functional
[2] = test system: MCF7; assay: Induction of apoptosis in human MCF7 cells assessed as early apoptotic cells at 5 uM after 72 hrs by Annexin V-FITC/propidium iodide based flow cytometric analysis (reference value: 1.14 %); format: functional
[3] = test system: MCF7; assay: Induction of apoptosis in human MCF7 cells assessed as viable cells at 5 uM after 72 hrs by Annexin V-FITC/propidium iodide based flow cytometric analysis (reference value: 94.10 %); format: functional; conditions: MCF7, 72 h, read-out: Activity
[4] = Cytotoxicity against human A549 cells after 48 hrs by SRB assay; format: functional, cell-based; conditions: A549, 48 h
[5] = Cytotoxicity against human SKOV3 cells after 48 hrs by SRB assay; format: functional, cell-based; conditions: SK-OV-3, 48 h
[6] = Cytotoxicity against human SK-MEL-2 cells after 48 hrs by SRB assay; format: functional, cell-based; conditions: SK-MEL-2, 48 h
[7] = Cytotoxicity against human HCT15 cells after 48 hrs by SRB assay; format: functional, cell-based; conditions: HCT-15, 48 h
[8] = (§1) Cytotoxicity against human MDA-MB-231 cells assessed as reduction in cell viability after 72 hrs by WST1 assay; format: functional, cell-based; conditions: MDA-MB-231, 72 h
[9] = test system: MDA-MB-231; assay: as §1; format: functional, cell-based
[10] = test system: MCF7; assay: Cytotoxicity against human MCF7 cells assessed as reduction in cell viability after 72 hrs by WST1 assay; format: functional, cell-based
[11] = test system: MDA-MB-231; assay: Induction of apoptosis in human MDA-MB-231 cells assessed as necrotic cells at 5 uM after 72 hrs by Annexin V-FITC/propidium iodide based flow cytometric analysis (reference value: 0.33 %); format: functional
[12] = test system: MDA-MB-231; assay: Induction of apoptosis in human MDA-MB-231 cells assessed as viable cells at 5 uM after 72 hrs by Annexin V-FITC/propidium iodide based flow cytometric analysis (reference value: 91.87 %); format: functional; conditions: MDA-MB-231, 72 h, read-out: Activity
[13] = test system: MDA-MB-231; assay: Induction of apoptosis in human MDA-MB-231 cells assessed as early apoptotic cells at 5 uM after 72 hrs by Annexin V-FITC/propidium iodide based flow cytometric analysis (reference value: 7.73 %); format: functional
[14] = test system: MDA-MB-231; assay: Induction of apoptosis in human MDA-MB-231 cells assessed as late apoptotic cells at 5 uM after 72 hrs by Annexin V-FITC/propidium iodide based flow cytometric analysis (reference value: 0.07 %); format: functional
[15] = test system: MDA-MB-231; assay: Induction of apoptosis in human MDA-MB-231 cells assessed as viable cells at 10 uM after 72 hrs by Annexin V-FITC/propidium iodide based flow cytometric analysis (reference value: 91.87 %); format: functional; conditions: MDA-MB-231, 72 h, read-out: Activity
[16] = test system: MDA-MB-231; assay: Induction of apoptosis in human MDA-MB-231 cells assessed as early apoptotic cells at 10 uM after 72 hrs by Annexin V-FITC/propidium iodide based flow cytometric analysis (reference value: 7.73 %); format: functional
[17] = test system: MDA-MB-231; assay: Induction of apoptosis in human MDA-MB-231 cells assessed as late apoptotic cells at 10 uM after 72 hrs by Annexin V-FITC/propidium iodide based flow cytometric analysis (reference value: 0.07 %); format: functional
[18] = test system: MDA-MB-231; assay: Induction of apoptosis in human MDA-MB-231 cells assessed as necrotic cells at 10 uM after 72 hrs by Annexin V-FITC/propidium iodide based flow cytometric analysis (reference value: 0.33 %); format: functional
[19] = test system: MDA-MB-231; assay: Induction of apoptosis in human MDA-MB-231 cells assessed as viable cells at 20 uM after 72 hrs by Annexin V-FITC/propidium iodide based flow cytometric analysis (reference value: 91.87 %); format: functional; conditions: MDA-MB-231, 72 h, read-out: Activity
[20] = test system: MDA-MB-231; assay: Induction of apoptosis in human MDA-MB-231 cells assessed as early apoptotic cells at 20 uM after 72 hrs by Annexin V-FITC/propidium iodide based flow cytometric analysis (reference value: 7.73 %); format: functional
[21] = test system: MDA-MB-231; assay: Induction of apoptosis in human MDA-MB-231 cells assessed as late apoptotic cells at 20 uM after 72 hrs by Annexin V-FITC/propidium iodide based flow cytometric analysis (reference value: 0.07 %); format: functional
[22] = test system: MDA-MB-231; assay: Induction of apoptosis in human MDA-MB-231 cells assessed as necrotic cells at 20 uM after 72 hrs by Annexin V-FITC/propidium iodide based flow cytometric analysis (reference value: 0.33 %); format: functional
[23] = test system: MCF7; assay: Induction of apoptosis in human MCF7 cells assessed as necrotic cells at 5 uM after 72 hrs by Annexin V-FITC/propidium iodide based flow cytometric analysis (reference value: 3.48 %); format: functional
[24] = test system: MCF7; assay: Induction of apoptosis in human MCF7 cells assessed as viable cells at 10 uM after 72 hrs by Annexin V-FITC/propidium iodide based flow cytometric analysis (reference value: 94.10 %); format: functional; conditions: MCF7, 72 h, read-out: Activity
[25] = test system: MCF7; assay: Induction of apoptosis in human MCF7 cells assessed as early apoptotic cells at 10 uM after 72 hrs by Annexin V-FITC/propidium iodide based flow cytometric analysis (reference value: 1.14 %); format: functional
[26] = test system: MCF7; assay: Induction of apoptosis in human MCF7 cells assessed as late apoptotic cells at 10 uM after 72 hrs by Annexin V-FITC/propidium iodide based flow cytometric analysis (reference value: 1.28 %); format: functional
[27] = test system: MCF7; assay: Induction of apoptosis in human MCF7 cells assessed as necrotic cells at 10 uM after 72 hrs by Annexin V-FITC/propidium iodide based flow cytometric analysis (reference value: 3.48 %); format: functional
[28] = test system: MCF7; assay: Induction of apoptosis in human MCF7 cells assessed as viable cells at 20 uM after 72 hrs by Annexin V-FITC/propidium iodide based flow cytometric analysis (reference value: 94.10 %); format: functional; conditions: MCF7, 72 h, read-out: Activity
[29] = test system: MCF7; assay: Induction of apoptosis in human MCF7 cells assessed as early apoptotic cells at 20 uM after 72 hrs by Annexin V-FITC/propidium iodide based flow cytometric analysis (reference value: 1.14 %); format: functional
[30] = test system: MCF7; assay: Induction of apoptosis in human MCF7 cells assessed as late apoptotic cells at 20 uM after 72 hrs by Annexin V-FITC/propidium iodide based flow cytometric analysis (reference value: 1.28 %); format: functional
[31] = test system: MCF7; assay: Induction of apoptosis in human MCF7 cells assessed as necrotic cells at 20 uM after 72 hrs by Annexin V-FITC/propidium iodide based flow cytometric analysis (reference value: 3.48 %); format: functional
[32] = test system: MDA-MB-231; assay: Induction of apoptosis in human MDA-MB-231 cells after 72 hrs by Annexin V-FITC/propidium iodide based flow cytometric analysis; format: functional, cell-based
[33] = test system: MDA-MB-231; assay: Induction of apoptosis in human MDA-MB-231 cells assessed as downregulation of Bcl2 expression up to 20 uM after 72 hrs by Western blot analysis; format: functional, cell-based
[34] = Induction of apoptosis in human MDA-MB-231 cells assessed as upregulation of Bax expression up to 20 uM after 72 hrs by Western blot analysis; format: functional, cell-based
[35] = test system: MDA-MB-231; assay: Induction in apoptosis in human MDA-MB-231 cells assessed as decrease in mitochondrial membrane potential at 20 uM after 24 hrs by JC1 fluorescent dye based confocal microscopic analysis; format: functional, cell-based
[36] = test system: MDA-MB-231; assay: Induction of apoptosis in human MDA-MB-231 cells assessed as caspase-9 activation upto 20 uM after 72 hrs by Western blot analysis; format: functional, cell-based
[37] = test system: MDA-MB-231; assay: Induction of apoptosis in human MDA-MB-231 cells assessed as caspase-3 activation upto 20 uM after 72 hrs by Western blot analysis; format: functional, cell-based

Question: Which Activity [1] does the source give for `CCOC(=O)/C=C/c1cc(O)c2c(c1)[C@@H](C(=O)OCC)[C@@H](c1ccc(O)c(O)c1)O2` here?
Answer: The Activity was 0.6%.

Question: What about the Activity [2] of the same compound?
Answer: Its Activity is 0.68%.

Question: What about the viability at 5 µM [3] of the same compound?
Answer: Its viability at 5 µM is 91.5%.

Question: And the IC50 [4]?
Answer: The IC50 was 1.42 µM.

Question: And the IC50 [5]?
Answer: The IC50 was 0.16 µM.

Question: And the IC50 [6]?
Answer: The IC50 was 0.2 µM.

Question: And the IC50 [7]?
Answer: Its IC50 is 0.14 µM.

Question: What about the IC50 [8] of the same compound?
Answer: Its IC50 is 7 µM.

Question: What about the Activity [9] of the same compound?
Answer: Its Activity is “Dose-dependent effect”.

Question: And the Activity [10]?
Answer: The Activity was “Dose-dependent effect”.

Question: And the Activity [11]?
Answer: Its Activity is 0.2%.

Question: And the viability at 5 µM [12]?
Answer: Its viability at 5 µM is 93%.

Question: What about the Activity [13] of the same compound?
Answer: The Activity was 6.73%.

Question: What about the Activity [14] of the same compound?
Answer: The Activity was 0.1%.

Question: What about the viability at 10 µM [15] of the same compound?
Answer: Its viability at 10 µM is 77.1%.

Question: What about the Activity [16] of the same compound?
Answer: The Activity was 19.5%.

Question: What about the Activity [17] of the same compound?
Answer: Its Activity is 1.5%.

Question: And the Activity [18]?
Answer: Its Activity is 1.9%.

Question: What about the viability at 20 µM [19] of the same compound?
Answer: Its viability at 20 µM is 68.3%.

Question: What about the Activity [20] of the same compound?
Answer: The Activity was 25.63%.

Question: And the Activity [21]?
Answer: The Activity was 3.17%.

Question: And the Activity [22]?
Answer: Its Activity is 2.87%.

Question: And the Activity [23]?
Answer: Its Activity is 7.24%.

Question: And the viability at 10 µM [24]?
Answer: Its viability at 10 µM is 88.9%.

Question: And the Activity [25]?
Answer: Its Activity is 0.7%.

Question: What about the Activity [26] of the same compound?
Answer: The Activity was 1.1%.

Question: What about the Activity [27] of the same compound?
Answer: Its Activity is 9.3%.

Question: What about the viability at 20 µM [28] of the same compound?
Answer: The viability at 20 µM was 84.9%.

Question: What about the Activity [29] of the same compound?
Answer: The Activity was 1.22%.

Question: And the Activity [30]?
Answer: Its Activity is 1.38%.

Question: And the Activity [31]?
Answer: Its Activity is 12.46%.

Question: And the Activity [32]?
Answer: Its Activity is “Dose-dependent effect”.

Question: And the Activity [33]?
Answer: Its Activity is “Active”.

Question: What about the Activity [34] of the same compound?
Answer: Its Activity is “Active”.

Question: What about the Activity [35] of the same compound?
Answer: Its Activity is “Active”.

Question: And the Activity [36]?
Answer: Its Activity is “Active”.

Question: And the Activity [37]?
Answer: The Activity was “Active”.
